Experimental data from patent publication US8088815B2, “Spiroindolinone pyrrolidines” (Hoffman-La Roche Inc., priority 2009, dated 2012).

biological target: interaction between p53 and MDM2 proteins (Homo sapiens, UniProt Q00987); experiment: HTRF assay of inhibition of the p53-MDM2 interaction (GST-MDM2 / biotinylated p53 peptide); type: binding; settings: recombinant GST-tagged MDM2 and biotinylated p53 peptide, bsa:0.02%
Sequence (Q00987 whole entry): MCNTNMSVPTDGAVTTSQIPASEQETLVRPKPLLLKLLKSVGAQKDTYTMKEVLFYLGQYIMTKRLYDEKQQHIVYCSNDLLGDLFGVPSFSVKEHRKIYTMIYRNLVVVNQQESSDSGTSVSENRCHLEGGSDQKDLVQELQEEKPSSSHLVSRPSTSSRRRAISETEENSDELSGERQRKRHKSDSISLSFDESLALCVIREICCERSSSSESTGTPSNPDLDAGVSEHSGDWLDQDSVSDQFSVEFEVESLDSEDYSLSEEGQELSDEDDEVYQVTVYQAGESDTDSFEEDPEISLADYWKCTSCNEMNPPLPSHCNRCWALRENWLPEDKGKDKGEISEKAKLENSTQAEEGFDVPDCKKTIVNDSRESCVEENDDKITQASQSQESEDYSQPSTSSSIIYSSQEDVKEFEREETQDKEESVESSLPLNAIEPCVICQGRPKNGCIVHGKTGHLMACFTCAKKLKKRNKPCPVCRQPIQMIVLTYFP

**Q.** How did the IC50 turn out when `COc1cc(S(=O)(=O)N2CCOCC2)ccc1NC(=O)[C@@H]1N[C@@H](CC(C)(C)C)[C@@]2(C(=O)Nc3cc(Cl)ccc32)[C@H]1c1cccc(Cl)c1F` (racemic) [Example 138, rac-(2′S,3′R,4′S,5′R)-6-chloro-4′-(3-chloro-2-fluoro-phenyl)-2′-(2,2-dimethyl-propyl)-2-oxo-1,2-dihydro-spiro[indole-3,3′-pyrrolidine]-5′-carboxylic acid [2-methoxy-4-(morpholine-4-sulfonyl)-phenyl]-amide] was run?
**A.** 13 nM

**Q.** How did the IC50 turn out when `COc1cc(N2CCOCC2)ccc1NC(=O)[C@@H]1N[C@@H](CC(C)(C)C)[C@@]2(C(=O)Nc3cc(Cl)ccc32)[C@H]1c1cccc(Cl)c1F` (racemic) [Example 143, rac-(2′S,3′R,4′S,5′R)-6-chloro-4′-(3-chloro-2-fluoro-phenyl)-2′-(2,2-dimethyl-propyl)-2-oxo-1,2-dihydro-spiro[indole-3,3′-pyrrolidine]-5′-carboxylic acid (2-methoxy-4-morpholin-4-yl-phenyl)-amide] was run?
**A.** 15 nM

**Q.** For `COc1cc(N2CC(C)OC(C)C2)ccc1NC(=O)[C@@H]1N[C@@H](CC(C)(C)C)[C@@]2(C(=O)Nc3cc(Cl)ccc32)[C@H]1c1cccc(Cl)c1F` (mixture of isomers) [Example 144, rac-(2′S,3′R,4′S,5′R)-6-chloro-4′-(3-chloro-2-fluoro-phenyl)-2′-(2,2-dimethyl-propyl)-2-oxo-1,2-dihydro-spiro[indole-3,3′-pyrrolidine]-5′-carboxylic acid [4-(2,6-dimethyl-morpholin-4-yl)-2-methoxy-phenyl]-amide], which IC50 is on record?
**A.** 19 nM

**Q.** How did the IC50 turn out when `CC(C)(C)C[C@@H]1N[C@@H](C(=O)Nc2ccc(C(N)=O)cc2OC(F)(F)F)[C@H](c2cccc(Cl)c2F)[C@]12C(=O)Nc1cc(Cl)ccc12` (racemic) [Example 146, rac-(2′S,3′R,4′S,5′R)-6-chloro-4′-(3-chloro-2-fluoro-phenyl)-2′-(2,2-dimethyl-propyl)-2-oxo-1,2-dihydro-spiro[indole-3,3′-pyrrolidine]-5′-carboxylic acid (4-carbamoyl-2-trifluoromethoxy-phenyl)-amide] was run?
**A.** 14 nM

**Q.** Which IC50 does the source give for `CCCCOc1cc(C(=O)OC)ccc1NC(=O)[C@@H]1N[C@@H](CC(C)(C)C)[C@@]2(C(=O)Nc3cc(Cl)ccc32)[C@H]1c1cccc(Cl)c1F` (racemic) [Example 150, rac-3-butoxy-4-{[(2′S,3′R,4′S,5′R)-6-chloro-4′-(3-chloro-2-fluoro-phenyl)-2′-(2,2-dimethyl-propyl)-2-oxo-1,2-dihydro-spiro[indole-3,3′-pyrrolidine]-5′-carbonyl]-amino}-benzoic acid methyl ester] here?
**A.** 15 nM

**Q.** How did the IC50 turn out when `CCCCOc1cc(C(=O)O)ccc1NC(=O)[C@@H]1N[C@@H](CC(C)(C)C)[C@@]2(C(=O)Nc3cc(Cl)ccc32)[C@H]1c1cccc(Cl)c1F` (racemic) [Example 151, rac-3-butoxy-4-{[(2′S,3′R,4′S,5′R)-6-chloro-4′-(3-chloro-2-fluoro-phenyl)-2′-(2,2-dimethyl-propyl)-2-oxo-1,2-dihydro-spiro[indole-3,3′-pyrrolidine]-5′-carbonyl]amino}-benzoic acid] was run?
**A.** 13 nM

**Q.** Which IC50 does the source give for `CCCCOc1cc(C(N)=O)ccc1NC(=O)[C@@H]1N[C@@H](CC(C)(C)C)[C@@]2(C(=O)Nc3cc(Cl)ccc32)[C@H]1c1cccc(Cl)c1F` (racemic) [Example 152, rac-(2′S,3′R,4′S,5′R)-6-chloro-4′-(3-chloro-2-fluoro-phenyl)-2′-(2,2-dimethyl-propyl)-2-oxo-1,2-dihydro-spiro[indole-3,3′-pyrrolidine]-5′-carboxylic acid (2-butoxy-4-carbamoyl-phenyl)-amide] here?
**A.** 11 nM

**Q.** With `COc1cc(-n2cnnn2)ccc1NC(=O)[C@@H]1N[C@@H](CC(C)(C)C)[C@@]2(C(=O)Nc3cc(Cl)ccc32)[C@H]1c1cccc(Cl)c1F` (racemic) [Example 153, rac-(2′S,3′R,4′S,5′R)-6-chloro-4′-(3-chloro-2-fluoro-phenyl)-2′-(2,2-dimethyl-propyl)-2-oxo-1,2-dihydro-spiro[indole-3,3′-pyrrolidine]-5′-carboxylic acid (2-methoxy-4-tetrazol-1-yl-phenyl)-amide] as the molecule, how does the IC50 read?
**A.** 8 nM

**Q.** With `COc1cc(NS(C)(=O)=O)ccc1NC(=O)[C@@H]1N[C@@H](CC(C)(C)C)[C@@]2(C(=O)Nc3cc(Cl)ccc32)[C@H]1c1cccc(Cl)c1F` (racemic) [Example 155, rac-(2′S,3′R,4′S,5′R)-6-chloro-4′-(3-chloro-2-fluoro-phenyl)-2′-(2,2-dimethyl-propyl)-2-oxo-1,2-dihydro-spiro[indole-3,3′-pyrrolidine]-5′-carboxylic acid (4-methanesulfonylamino-2-methoxy-phenyl)-amide] as the molecule, how does the IC50 read?
**A.** 13 nM

**Q.** `COc1cnccc1NC(=O)[C@@H]1N[C@@H](CC(C)(C)C)[C@@]2(C(=O)Nc3cc(Cl)ccc32)[C@H]1c1cccc(Cl)c1F` (racemic) [Example 162, rac-(2′S,3′R,4′S,5′R)-6-chloro-4′-(3-chloro-2-fluoro-phenyl)-2′-(2,2-dimethyl-propyl)-2-oxo-1,2-dihydro-spiro[indole-3,3′-pyrrolidine]-5′-carboxylic acid (3-methoxy-pyridin-4-yl)-amide] was tested. Which IC50 did it give?
**A.** 19 nM

**Q.** Which IC50 does the source give for `COc1cc(N(C)C)ccc1NC(=O)[C@@H]1N[C@@H](CC(C)(C)C)[C@@]2(C(=O)Nc3cc(Cl)ccc32)[C@H]1c1cccc(Cl)c1F` (racemic) [Example 164, rac-(2′S,3′R,4′S,5′R)-6-chloro-4′-(3-chloro-2-fluoro-phenyl)-2′-(2,2-dimethyl-propyl)-2-oxo-1,2-dihydro-spiro[indole-3,3′-pyrrolidine]-5′-carboxylic acid (4-dimethylamino-2-methoxy-phenyl)-amide] here?
**A.** 18 nM

**Q.** With `CNc1cc(C(=O)OC)ccc1NC(=O)[C@@H]1N[C@@H](CC(C)(C)C)[C@@]2(C(=O)Nc3cc(Cl)ccc32)[C@H]1c1cccc(Cl)c1F` (racemic) [Example 166, rac-4-{[(2′S,3′R,4′S,5′R)-6-chloro-4′-(3-chloro-2-fluoro-phenyl)-2′-(2,2-dimethyl-propyl)-2-oxo-1,2-dihydro-spiro[indole-3,3′-pyrrolidine]-5′-carbonyl]amino}-3-methylamino-benzoic acid methyl ester] as the molecule, how does the IC50 read?
**A.** 25 nM

**Q.** With `CNc1cc(C(=O)O)ccc1NC(=O)[C@@H]1N[C@@H](CC(C)(C)C)[C@@]2(C(=O)Nc3cc(Cl)ccc32)[C@H]1c1cccc(Cl)c1F` (racemic) [Example 167, rac-4-{[(2′S,3′R,4′S,5′R)-6-chloro-4′-(3-chloro-2-fluoro-phenyl)-2′-(2,2-dimethyl-propyl)-2-oxo-1,2-dihydro-spiro[indole-3,3′-pyrrolidine]-5′-carbonyl]-amino}-3-methylamino-benzoic acid] as the molecule, how does the IC50 read?
**A.** 10 nM

**Q.** For `CC(C)(C)C[C@@H]1N[C@@H](C(=O)Nc2ccc(C#N)cc2)[C@H](c2cccc(Cl)c2F)[C@]12C(=O)Nc1c2ccc(Cl)c1F` (racemic) [Example 175, rac-(2′S,3′R,4′S,5′R)-6-chloro-4′-(3-chloro-2-fluoro-phenyl)-2′-(2,2-dimethyl-propyl)-7-fluoro-2-oxo-1,2-dihydro-spiro[indole-3,3′-pyrrolidine]-5′-carboxylic acid (4-cyano-phenyl)-amide], which IC50 is on record?
**A.** 40 nM

**Q.** For `CC(C)(C)C[C@@H]1N[C@@H](C(=O)Nc2ccc(C(N)=O)cc2)[C@H](c2cccc(Cl)c2F)[C@]12C(=O)Nc1c2ccc(Cl)c1F` (racemic) [Example 176, rac-(2′S,3′R,4′S,5′R)-6-chloro-4′-(3-chloro-2-fluoro-phenyl)-2′-(2,2-dimethyl-propyl)-7-fluoro-2-oxo-1,2-dihydro-spiro[indole-3,3′-pyrrolidine]-5′-carboxylic acid (4-carbamoyl-phenyl)-amide], which IC50 is on record?
**A.** 18 nM

**Q.** How did the IC50 turn out when `COc1cc(C#N)ccc1NC(=O)[C@@H]1N[C@@H](CC(C)(C)C)[C@@]2(C(=O)Nc3c2ccc(Cl)c3F)[C@H]1c1cccc(Cl)c1F` (racemic) [Example 177, rac-(2′S,3′R,4′S,5′R)-6-chloro-4′-(3-chloro-2-fluoro-phenyl)-2′-(2,2-dimethyl-propyl)-7-fluoro-2-oxo-1,2-dihydro-spiro[indole-3,3′-pyrrolidine]-5′-carboxylic acid (4-cyano-2-methoxy-phenyl)-amide] was run?
**A.** 21 nM

**Q.** `COc1cc(C(N)=O)ccc1NC(=O)[C@@H]1N[C@@H](CC(C)(C)C)[C@@]2(C(=O)Nc3c2ccc(Cl)c3F)[C@H]1c1cccc(Cl)c1F` (racemic) [Example 178, rac-(2′S,3′R,4′S,5′R)-6-chloro-4′-(3-chloro-2-fluoro-phenyl)-2′-(2,2-dimethyl-propyl)-7-fluoro-2-oxo-1,2-dihydro-spiro[indole-3,3′-pyrrolidine]-5′-carboxylic acid (4-carbamoyl-2-methoxy-phenyl)-amide] was tested. Which IC50 did it give?
**A.** 15 nM

**Q.** `COc1cc(OCCO)ccc1NC(=O)[C@@H]1N[C@@H](CC(C)(C)C)[C@@]2(C(=O)Nc3c2ccc(Cl)c3F)[C@H]1c1cccc(Cl)c1F` (racemic) [Example 179, rac-(2′S,3′R,4′S,5′R)-6-chloro-4′-(3-chloro-2-fluoro-phenyl)-2′-(2,2-dimethyl-propyl)-7-fluoro-2-oxo-1,2-dihydro-spiro[indole-3,3′-pyrrolidine]-5′-carboxylic acid [4-(2-hydroxy-ethoxy)-2-methoxy-phenyl]-amide] was tested. Which IC50 did it give?
**A.** 39 nM

**Q.** Which IC50 does the source give for `CC(C)(C)C[C@@H]1N[C@@H](C(=O)Nc2ccc(C#N)nc2)[C@H](c2cccc(Cl)c2F)[C@]12C(=O)Nc1cc(Cl)ccc12` (racemic) [Example 182, rac-(2′S,3′R,4′S,5′R)-6-chloro-4′-(3-chloro-2-fluoro-phenyl)-2′-(2,2-dimethyl-propyl)-2-oxo-1,2-dihydro-spiro[indole-3,3′-pyrrolidine]-5′-carboxylic acid (6-cyano-pyridin-3-yl)-amide] here?
**A.** 17 nM

**Q.** How did the IC50 turn out when `CC(C)(C)C[C@@H]1N[C@@H](C(=O)Nc2ccc(C(N)=O)nc2)[C@H](c2cccc(Cl)c2F)[C@]12C(=O)Nc1cc(Cl)ccc12` (racemic) [Example 183, rac-(2′S,3′R,4′S,5′R)-6-chloro-4′-(3-chloro-2-fluoro-phenyl)-2′-(2,2-dimethyl-propyl)-2-oxo-1,2-dihydro-spiro[indole-3,3′-pyrrolidine]-5′-carboxylic acid (6-carbamoyl-pyridin-3-yl)-amide] was run?
**A.** 7 nM
